According to US20110166105A1, “ANTIMICROBIAL WASH AND CARRIER SOLUTIONS AND USES THEREOF” (TEVA ANIMAL HEALTH, INC., priority 2002, published 2011):

Assay: Antimicrobial preservative effectiveness (APE), USP 25 test 51
Assay type: cell-based
Conditions: pH 8.5
Procedure: Various concentrations of benzyl alcohol were tested for antimicrobial preservative effectiveness (APE) using the USP 25 test 51 (U.S. Pharmacopeia 25, U.S. Pharmacopeia, MD (2001)). The formulations below are based on the formulation designated as 940-16 C (with a slightly higher pH) in Example 2 above with varying benzyl alcohol concentrations. The table below summarizes the results of these studies. Antimicrobial activity can be measured by any standard assay known to those of skill in the art (e.g., USP 25 antimicrobial preservative effectiveness (APE) test 51 (U.S. Pharmacopeia 25, U.S. Pharmacopeia, MD (2001)).

## OCc1ccccc1 [benzyl alcohol]
  USP antimicrobial preservative requirement: meets the USP antimicrobial preservative requirement
